Measurements: patent US7754692B2, “Arginyl-glutamine dipeptide for treatment of pathological vascular proliferation” (University of Florida Research Foundation, Inc., priority 2003, dated 2010)
Peptide text beside a SMILES is read from it.

Assays:
[1] = tested on: pre-retinal neovascularization; experiment: Neonatal mouse hyperoxia model of retinopathy of prematurity, counting pre-retinal neovascularization on stained sections; type: in vivo, mice
Procedure: Neonatal mice were exposed to a period of hyperoxia to induce retinal angiogenesis that mimics retinopathy of prematurity. An Arginyl-glutamine dipeptide was administered intraperitoneally twice daily during the period when neovascularization occurs in this model, days 12 through 17.
On day 17 the animals are sacrificed and degree of angiogenesis was quantified by counting pre-retinal neovascularization on stained sections from treated and untreated animals.

[2] = tested on: vascular endothelial growth factor (VEGF); experiment: Retinal cell culture model, vascular endothelial growth factor (VEGF); type: cell-based
retinal cell culture = experiment: Retinal cell culture model, transepithelial resistance (TER); type: cell-based

N=C(N)NCCC[C@H](N)C(=O)N[C@@H](CCC(N)=O)C(=O)O [argininyl-glutamine, arginyl-glutamine] (H-Arg-Gln-OH)
reduction in preretinal neovascularization ([1]; neonatal mice after hyperoxia, intraperitoneally twice daily days 12 through 17, read on day 17, combined data from two experiments (FIG. 1)): 80% | nuclei (associated with retinopathy) compared to the vehicle ([1]; repeat experiment with different doses of the dipeptide after oxygen stress challenge, FIG. 2): clear decrease | vascular endothelial growth factor (VEGF) [2]: decreased | transepithelial resistance (TER) (retinal cell culture): increased
